Assay results published in article PMC5295395, “Inhibition of PlexA1-mediated brain tumor growth and tumor-associated angiogenesis using a transmembrane domain targeting peptide” (Oncotarget, 2016).

Columns and labels:
[1] = system: GBM tumors grafted in brain of immunocompromised mice; experiment: orthotopic GBM graft in mouse brain; assay type: in vivo, human cells in mouse; settings: i.p., 1 μg/kg every 3 days for 3 weeks, 1.5 µg/kg 3 times per week
Experimental: To address the biological consequences of MTP-PlexA1-mediated inhibition of PlexA1 we used the U118MG-Luc glioma cell line genetically engineered to express the luciferase reporter gene. […] Cells were then grafted subcutaneously and tumor growth was monitored every 5 days for a total period of 20 days. […] The quantitative analysis of the cumulated luminescent signal acquired all along the protocol confirmed the strong reduction of tumor development translating into a marked 75% reduction of the averaged luminescent signal at the end point (Figure 6C). […] However, responses were strong for 8 out of 10 mice with some responses close to 100%, all of them being at least Partial Response (PR) (Figure 6D). In order to clarify the mechanism by which MTP-PlexA1 is exerting tumor growth inhibition we collected tumors and analyzed them histologically.
Supplementary Figure S5: We performed an orthotropic grafting experiment to monitor the effect of MTP-PlexA1 on GBM tumors developing in their native microenvironment. All procedures using animals are submitted to the Animal Care and Use Committee of AL/54/61/02/13. Immunocompromised mice are anesthetized with isoflurane 3% (BAXTER), under 0.5 L O2, and received a subcutaneous injection of ketofen 1% 1.5 mL/Kg (MERIAL). The scalp is incised and 100 000 cells of the dissociated GBM biopsy were engrafted with a 2 µL Hamilton syringe (HARVARD APPARATUS; HAM-88400) mounted on a stereotaxic set up (HARVARD APPARATUS) to inject cells at the following coordinates from the bregma x: −2 mm; y: +1 mm; z: −3.5 mm at a speed of 0.66 µl/min, 5 minutes after the syringe introduction. […] Tumor volume is calculated by the addition of every partial volume: [V total = Σ partial volumes = Σ d1 × (S1 + S2)/2 + d2 x (S2 + S3)/2 + … + dn x […]]. […] The immunostaining procedure used to quantify proliferation and vascularization of the tumor is described in the method section.While not strongly impacting tumor volume (−14.5%, p = 0.54, Mann Whitney test) the intraperitoneal […]

[2] = system: NCH644 glioma stem cell tumors in nude mice; experiment: NCH644-mCherry xenograft in nude mice, cells pre-incubated with peptide; assay type: in vivo, human cells in mouse; settings: 5 days
Experimental: Mounting evidence supports a crucial role of cancer stem cells in the initiation or relapse of tumors. This is particularly the case for gliomas. Thus, we decided to evaluate to what extent MTP-PlexA1 would affect glioma stem cell (GSC) growth. To this end, we used the NCH644 human cell line derived from a patient biopsy. […] We next performed a sphere forming assay in which cells were plated into 96-well plates at a low density (30 cells per well) to monitor production of clones from individual cells growing as non-adherent gliomaspheres. A minimum of 30 cells per well was required to allow sufficient sphere production (composed of at least 8 cells) in a time frame compatible with drug testing. Visual control of sphere formation on a daily basis confirmed that cellular edifices were arising from single cells and not due to cell clumping. […] To address whether this inhibitory effect is sufficient to impede tumor development in vivo we performed a xenograft experiment. NCH644 GCS were grafted in the flank of nude mice in a way to obtain two bilateral tumors derived from either control cells without treatment or from cells that had been pre-incubated with MTP-PlexA1. This was done using a fluorescent version of the NCH644 cell line (mCherry-NCH644) allowing live monitoring of tumor appearance (Figure 7E). […]
Experiments were performed according to the Guide for Care and Use of Laboratory Animals (E67-6-482-21) and the European Directive with approval of the regional ethical committee (Reference AL/55/62/02/13). […] For the experiment conducted with cancer stem cell line NCH644mCherry, we performed bilateral grafting of 10^6 cells on each flank of 20 nude mice without treatment or pre-incubated for 1 hour with MTP-PlexA1 at 10–7 M. After 5 days, the fluorescence emission of developing tumors was recorded using the NightOwl system (Berthold) using appropriate excitation and emission filters (580 nm/620 nm respectively).

Sequence: TLPAIVGIGGGGGLLLLVIVAVLIAYKRK [MTP-PlexA1, synthetic transmembrane peptide mimicking the TMD of PlexA1]
- change of tumor volume, orthotopic ([1]; n = 12, p = 0.54, Mann Whitney): −14.5%
- change of PH3 positive cells, orthotopic ([1]; p = 0.0023): −38.3%
- change of angiogenesis, orthotopic ([1]; p = 0.0378): −14.3%
- change of number of detectable tumors ([2]; NCH644 cells pre-incubated 1 h at 10–7 M, p = 0.0032, Mann Whitney): −71.4%
- detectable tumors after grafting pre-incubated cells ([2]; NCH644 cells pre-incubated 1 h at 10–7 M, untreated control 14 tumors in 20 mice, p = 0.0032): 4 out of 20
- size of tumors that were able to grow ([2]; NCH644 cells pre-incubated, fluorescence, p = 0.4258): comparable to the one of the control group
